# Laboratory results taken from patent US20110070232A1, “Combination Therapy with an Antitumor Alkaloid” (Pharma Mar, S.A., priority 2008, published 2011).
# Like-named read-outs stand apart in the source and are kept apart here.
# How the values were obtained:
# [1] = test system: AGS human gastric carcinoma cell line; assay: IC50 determination, MTS assay, 72 h (Example 1); type: cell-based; settings: 72 hours of drug exposure
# Description: (§1) The human gastric carcinoma cell lines selected for this assay were the following: Hs746T, HGC-27, and AGS cell lines. Hs746T and AGS cell lines were grown in Dulbecco's modified Eagle's medium (DMEM) supplemented with 10% Fetal Bovine Serum (FBS), 1.5 g/L sodium bicarbonate, 4.5 g/L glucose and 4 mM L-glutamine. HGC-27 cell line was grown in Iscove's modified Dulbecco's medium (IMDM) supplemented with 20% FBS and 2 mM L-glutamine.
# (§2) The day before plating, the cells were fed with fresh, complete growth media. On the harvest (plating) day, cells were counted by Trypan Blue exclusion staining method.
# (§3) Cells were harvested and seeded in 96 well microtiter plates at 10,000 cells density in 150 μL of media and incubated for 24 hours to allow the cells to attach before drug addition. To collect reference data, the MTS assay was done on untreated cells at time 0 (after incubation of cells for 24 hours).
# (§4) The cytotoxic effect was measured by the MTS Assay (Tetrazolium), which is a colorimetric method for determining the number of viable cells. After the incubation period (24 hours for the Day 0 plate and 72 hours for the Test and Control plates), 25 μL of MTS+PMS solution was added to each microtiter well and incubated for 4 hours at 37° C. Plates were then removed from incubator and placed on plate shaker for 5 minutes (covered with aluminum foil for protection from light). Optical densities were read at 490 nm on spectrophotometer plate reader.
# (§5) IC50 values were calculated from an average of two to four assays for each of the test agents.
# [2] = test system: HGC-27 human gastric carcinoma cell line; assay: IC50 determination, MTS assay, 72 h (Example 1); type: cell-based; settings: 72 hours of drug exposure
# Description: as §1, §2, §3, §4, §5
# [3] = test system: Hs746T human gastric carcinoma cell line; assay: IC50 determination, MTS assay, 72 h (Example 1); type: cell-based; settings: 72 hours of drug exposure
# Description: as §1, §2, §3, §4, §5
# [4] = test system: Hs746T tumors; type: in vivo, mice; settings: for % T/C on day 14 / % T/C on day 19 / % T/C on day 22 / % T/C on day 26 / % T/C on day 29 / % T/C on day 32 / % T/C on day 39: PM00104 0.90 IV, DPI 14, 21, 28
# Description: Female athymic nude mice (Harlan Sprague Dawley, Madison, Wis.) were utilized for all experiments. Animals were housed in ventilated rack caging with food and water ad libitum. The mice were acclimated for at least 5 days prior to tumor implantation with a tumor cell suspension.
# The tumor model used in these studies was Hs746T cell line, which was obtained from the ATCC (Manassas, Va.).
# (§6) Treatments were initiated on DPI 14.
# (§7) Tumor size measurements were recorded twice weekly from the treatment initiation until the termination of the study.
# (§8) Mean, standard deviation and standard error of the mean were determined for tumor volume for all animal groups at all assessments. Student's t test was performed on tumor volumes at each measurement day, including at the end of the study, to determine whether there were any statistically significant differences between combination treatment groups and single monotherapy treatment groups.
# [5] = test system: MRI-H-254 tumors; type: in vivo, mice
# Description: (§9) Female athymic nude mice (Harlan Sprague Dawley, Madison, Wis.) were utilized for all experiments. Animals were housed in ventilated rack caging with food and water ad libitum. The mice were acclimated for at least 5 days prior to tumor implantation with tumor fragments.
# Treatments were initiated on DPI 20.
# as §7, §8
# [6] = test system: SK-OV-3 tumors; type: in vivo, mice
# Source text: as §9
# The tumor model used in these studies was SK-OV-3 cell line, which was obtained from the ATCC (Manassas, Va.).
# SK-OV-3 fragments were removed from donor animals and tissue was debrided of membrane and any hemorrhagic and necrotic areas and 3-4 mm^3 fragments, from in vivo passage 2, were implanted SC on the right flank of each animal, using a 13G trochar. Bacterial culture was taken on cells used to implant the study.
# as §6, §7, §8
# [7] = test system: NCI-H460 tumors; type: in vivo, mice
# Description: Female athymic nude mice (Harlan Sprague Dawley, Madison, Wis.) were utilized for all experiments. Animals were housed in ventilated rack caging with food and water ad libitum. The mice were acclimated for at least 5 days prior to tumor implantation.
# The tumor model used in this study was NCI-H460 cell line which is a human NSCLC cell line obtained from the ATCC (Manassas, Va.). […] Cells from in vitro passage 7 were implanted SC into study mice using a 1 ml syringe with a 13G trocar: 5×10^6 cells/mouse in 0.2 ml 50% Matrigel/50% RPMI medium of NCI-H460 without serum or antibiotics. Bacterial culture was taken on cells used to implant the study.
# Treatments were initiated on DPI 9.
# Tumor size measurements were recorded 2-3 times/week from the treatment initiation until the termination of the study.
# as §8
# [8] = docetaxel 8 IP, oxaliplatin 4 IP mg/kg/day (G4, G6, G8, G10)
# [9] = docetaxel 16 IP, oxaliplatin 8 IP mg/kg/day (G2, G3, G5, G7, G9)
# [10] = PM00104 0.90 IV, docetaxel 8 IP, oxaliplatin 4 IP mg/kg/day (G4, G6, G8, G10), DPI 20, 27, 34
# [11] = PM00104 0.90 IV, docetaxel 16 IP, oxaliplatin 8 IP mg/kg/day (G2, G3, G5, G7, G9), DPI 20, 27, 34
# [12] = Bevacizumab […] IP, alone or with PM00104 0.90 mg/kg/day IV
# [13] = PM00104 0.90 mg/kg/day IV and/or Bevacizumab 5 mg/kg/day IP
# [14] = Bevacizumab […] IP, alone or with PM00104 0.9 mg/kg/day IV
# [15] = PM00104 0.9 mg/kg/day IV and/or Bevacizumab 5 mg/kg/day IP
compound,measurement,setting,value
"CC(=O)O[C@@]12CO[C@@H]1C[C@H](O)[C@@]1(C)C(=O)[C@H](O)C3=C(C)[C@@H](OC(=O)[C@H](O)[C@@H](NC(=O)OC(C)(C)C)c4ccccc4)C[C@@](O)([C@@H](OC(=O)c4ccccc4)[C@H]21)C3(C)C [Docetaxel, docetaxel]",IC50,"[1]; Homo sapiens, read-out: IC50",1.99 µg/mL
same,IC50,"[2]; Homo sapiens, read-out: IC50",6.54 µg/mL
same,IC50,"[3]; Homo sapiens, read-out: IC50",44.2 µg/mL
same,% T/C on day 14,[4]; [8],100.8%
same,% T/C on day 19,[4]; [8],49.0%
same,% T/C on day 22,[4]; [8],41.6%
same,% T/C on day 26,[4]; [8],32.5%
same,% T/C on day 29,[4]; [8],29.4%
same,% T/C on day 32,[4]; [8],39.4%
same,% T/C on day 39,[4]; [8],55.1%
same,% T/C on day 14,[4]; [9],100.3%
same,% T/C on day 19,[4]; [9],33.6%
same,% T/C on day 22,[4]; [9],21.3%
same,% T/C on day 26,[4]; [9],7.2%
same,% T/C on day 29,[4]; [9],3.5%
same,% T/C on day 32,[4]; [9],1.5%
same,% T/C on day 39,[4]; [9],−0.6%
same,% Inhibition,"[4]; day 14, PM00104 0.9 and docetaxel 8 mg/kg/day",−0.8%
same,% Inhibition,"[4]; day 14, PM00104 0.9 and docetaxel 16 mg/kg/day",−0.3%
same,% Inhibition,"[4]; day 19, PM00104 0.9 and docetaxel 8 mg/kg/day",51.0%
same,% Inhibition,"[4]; day 19, PM00104 0.9 and docetaxel 16 mg/kg/day",66.4%
same,% Inhibition,"[4]; day 22, PM00104 0.9 and docetaxel 8 mg/kg/day",58.4%
same,% Inhibition,"[4]; day 22, PM00104 0.9 and docetaxel 16 mg/kg/day",78.7%
same,% Inhibition,"[4]; day 26, PM00104 0.9 and docetaxel 8 mg/kg/day",67.5%
same,% Inhibition,"[4]; day 26, PM00104 0.9 and docetaxel 16 mg/kg/day",92.8%
same,% Inhibition,"[4]; day 29, PM00104 0.9 and docetaxel 8 mg/kg/day",70.6%
same,% Inhibition,"[4]; day 29, PM00104 0.9 and docetaxel 16 mg/kg/day",96.5%
same,% Inhibition,"[4]; day 32, PM00104 0.9 and docetaxel 8 mg/kg/day",60.6%
same,% Inhibition,"[4]; day 32, PM00104 0.9 and docetaxel 16 mg/kg/day",98.5%
same,% Inhibition,"[4]; day 39, PM00104 0.9 and docetaxel 8 mg/kg/day",44.9%
same,% Inhibition,"[4]; day 39, PM00104 0.9 and docetaxel 16 mg/kg/day",100.6%
same,% T/C on day 20,[5]; [10],97.7%
same,% T/C on day 23,[5]; [10],122.8%
same,% T/C on day 27,[5]; [10],93.1%
same,% T/C on day 30,[5]; [10],102.6%
same,% T/C on day 33,[5]; [10],114.1%
same,% T/C on day 36,[5]; [10],119.2%
same,% T/C on day 40,[5]; [10],120.1%
same,% T/C on day 48,[5]; [10],97.3%
same,% T/C on day 20,[5]; [11],101.4%
same,% T/C on day 23,[5]; [11],115.4%
same,% T/C on day 27,[5]; [11],90.9%
same,% T/C on day 33,[5]; [11],115.8%
same,% T/C on day 36,[5]; [11],108.4%
same,% T/C on day 40,[5]; [11],100.4%
same,% T/C on day 48,[5]; [11],76.7%
same,% Inhibition,"[5]; day 20, PM00104 0.9 and docetaxel 8 mg/kg/day",2.3%
same,% Inhibition,"[5]; day 20, PM00104 0.9 and docetaxel 16 mg/kg/day",−1.4%
same,% Inhibition,"[5]; day 23, PM00104 0.9 and docetaxel 8 mg/kg/day",−22.8%
same,% Inhibition,"[5]; day 23, PM00104 0.9 and docetaxel 16 mg/kg/day",−15.4%
same,% Inhibition,"[5]; day 27, PM00104 0.9 and docetaxel 8 mg/kg/day",6.9%
same,% Inhibition,"[5]; day 27, PM00104 0.9 and docetaxel 16 mg/kg/day",9.1%
same,% Inhibition,"[5]; day 30, PM00104 0.9 and docetaxel 8 mg/kg/day",−2.6%
same,% Inhibition,"[5]; day 30, PM00104 0.9 and docetaxel 16 mg/kg/day",−17.1%
same,% Inhibition,"[5]; day 33, PM00104 0.9 and docetaxel 8 mg/kg/day",−14.1%
same,% Inhibition,"[5]; day 33, PM00104 0.9 and docetaxel 16 mg/kg/day",−15.8%
same,% Inhibition,"[5]; day 36, PM00104 0.9 and docetaxel 8 mg/kg/day",−19.2%
same,% Inhibition,"[5]; day 36, PM00104 0.9 and docetaxel 16 mg/kg/day",−8.4%
same,% Inhibition,"[5]; day 40, PM00104 0.9 and docetaxel 8 mg/kg/day",−20.1%
same,% Inhibition,"[5]; day 40, PM00104 0.9 and docetaxel 16 mg/kg/day",−0.4%
same,% Inhibition,"[5]; day 48, PM00104 0.9 and docetaxel 8 mg/kg/day",2.7%
same,% Inhibition,"[5]; day 48, PM00104 0.9 and docetaxel 16 mg/kg/day",23.3%
bevacizumab,% T/C on day 14,[6]; [12],100.5%
same,% T/C on day 17,[6]; [12],85.0%
same,% T/C on day 21,[6]; [12],61.0%
same,% T/C on day 24,[6]; [12],48.4%
same,% T/C on day 29,[6]; [12],32.1%
same,% T/C on day 32,[6]; [12],29.6%
same,% T/C on day 36,[6]; [12],40.3%
same,% T/C on day 43,[6]; [12],48.7%
same,% T/C on day 50,[6]; [12],47.5%
same,% T/C on day 57,[6]; [12],70.0%
same,% T/C on day 14,[6]; [13],100.2%
same,% T/C on day 17,[6]; [13],76.6%
same,% T/C on day 21,[6]; [13],64.0%
same,% T/C on day 24,[6]; [13],42.6%
same,% T/C on day 29,[6]; [13],28.0%
same,% T/C on day 32,[6]; [13],25.8%
same,% T/C on day 36,[6]; [13],30.7%
same,% T/C on day 43,[6]; [13],43.8%
same,% T/C on day 50,[6]; [13],42.5%
same,% T/C on day 57,[6]; [13],46.1%
same,% T/C on day 9,[7]; [14],99.4%
same,% T/C on day 13,[7]; [14],81.7%
same,% T/C on day 16,[7]; [14],74.3%
same,% T/C on day 21,[7]; [14],59.7%
same,% T/C on day 24,[7]; [14],52.0%
same,% T/C on day 27,[7]; [14],26.9%
same,% T/C on day 30,[7]; [14],43.3%
same,% T/C on day 38,[7]; [14],96.8%
same,% T/C on day 41,[7]; [14],104.7%
same,% T/C on day 9,[7]; [15],102.1%
same,% T/C on day 13,[7]; [15],91.3%
same,% T/C on day 16,[7]; [15],87.6%
same,% T/C on day 21,[7]; [15],74.2%
same,% T/C on day 24,[7]; [15],68.3%
same,% T/C on day 27,[7]; [15],38.7%
same,% T/C on day 30,[7]; [15],43.7%
"CCc1c2c(nc3ccc(O)cc13)-c1cc3c(c(=O)n1C2)COC(=O)[C@]3(O)CC [SN38, 7-ethyl-10-hydroxycamptothecin]",IC50,[1],0.00549 µg/mL
same,IC50,[2],0.246 µg/mL
same,IC50,[3],0.0582 µg/mL
